The NIST ThermoML archive (doi:10.1021/je101012n)

Experiment: mn = molality of the nth substance listed, in mol/kg
Conditions: 101 kPa, Liquid, Alternating current cell with electrodes

O=[N+]([O-])[O-].O=[N+]([O-])[O-].[Mg+2] [magnesium nitrate] + O
electrical conductivity [S/m]
Conditions | 278.1 K | 283.1 K | 298.15 K | 308.15 K | 318.15 K | 343.15 K | 363.15 K
m1 = 9.8e-05 | 0.007334 | 0.008166 | 0.01072 | 0.01244 | 0.01407 | 0.01831 | 0.02164
m1 = 0.000976 | 0.01971 | 0.02238 | 0.03083 | 0.03667 | 0.04272 | 0.0591 | 0.07277
m1 = 0.00937 | 0.1291 | 0.1472 | 0.2073 | 0.2488 | 0.2927 | 0.4146 | 0.5165
m1 = 0.09844 | 1.079 | 1.228 | 1.724 | 2.078 | 2.442 | 3.471 | 4.261
m1 = 0.3271 | 3.129 | 3.538 | 4.926 | 5.922 | 6.968 | 9.861 | 11.62

[Cl-].[K+] [potassium chloride] + O
electrical conductivity [S/m]
Conditions | 278.15 K | 283.15 K | 298.15 K | 308.15 K | 318.15 K | 343.15 K | 363.15 K
m1 = 0.0001 | 0.0009464 | 0.001074 | 0.001487 | 0.001786 | 0.002105 | 0.002969 | 0.003716
m1 = 0.001 | 0.009198 | 0.0105 | 0.01471 | 0.01773 | 0.0207 | 0.02897 | 0.03587
m1 = 0.01 | 0.0891 | 0.1014 | 0.1408 | 0.1688 | 0.1977 | 0.2761 | 0.3426
m1 = 0.1 | 0.8184 | 0.9292 | 1.283 | 1.532 | 1.788 | 2.471 | 3.086
m1 = 0.5 | 3.875 | 4.375 | 5.92 | 6.981 | 8.107 | 11.23 | 13.48
m1 = 1 | 7.203 | 8.084 | 10.86 | 12.8 | 14.77 | 20.25 | 24.58

O=C([O-])[O-].[Na+].[Na+] [sodium carbonate] + O
electrical conductivity [S/m]
Conditions | 278.15 K | 283.15 K | 298.15 K | 308.15 K | 318.15 K | 343.15 K | 363.15 K
m1 = 0.000912 | 0.01348 | 0.01603 | 0.02439 | 0.02888 | 0.03495 | 0.05196 | 0.06513
m1 = 0.01031 | 0.1285 | 0.1491 | 0.2182 | 0.2684 | 0.3237 | 0.4867 | 0.6187
m1 = 0.09334 | 0.886 | 1.024 | 1.486 | 1.822 | 2.182 | 3.222 | 4.117
m1 = 0.3041 | 2.324 | 2.685 | 3.893 | 4.781 | 5.713 | 8.362 | 10.64

[Na+].[OH-] [sodium hydroxide] + O
electrical conductivity [S/m]
Conditions | 278.15 K | 283.15 K | 298.15 K | 308.15 K | 318.15 K | 343.15 K | 363.15 K
m1 = 0.001 | 0.01671 | 0.01919 | 0.02459 | 0.02833 | 0.03327 | 0.04401 | 0.05213
m1 = 0.01 | 0.1596 | 0.1793 | 0.2414 | 0.2784 | 0.3201 | 0.4294 | 0.5115
m1 = 0.1 | 1.498 | 1.677 | 2.251 | 2.635 | 3.026 | 4.062 | 4.861
m1 = 0.5 | 6.639 | 7.417 | 9.875 | 11.59 | 13.25 | 17.72 | 20.63
m1 = 1 | 12.13 | 13.5 | 18.01 | 21.19 | 24.38 | 32.74 | 36.66

O=C([O-])[O-].[K+].[K+] [potassium carbonate] + O
electrical conductivity [S/m]
Conditions | 278.15 K | 283.15 K | 298.15 K | 308.15 K | 318.15 K | 343.15 K | 363.15 K
m1 = 0.00132 | 0.02129 | 0.02471 | 0.03642 | 0.0439 | 0.05331 | 0.07921 | 0.09755
m1 = 0.01048 | 0.1568 | 0.1809 | 0.2575 | 0.3146 | 0.3758 | 0.5522 | 0.6987
m1 = 0.1319 | 1.589 | 1.815 | 2.542 | 3.054 | 3.59 | 5.098 | 6.345
m1 = 0.3525 | 3.8 | 4.305 | 5.942 | 7.115 | 8.319 | 11.6 | 14.31

[F-].[K+] [potassium fluoride] + O
electrical conductivity [S/m]
Conditions | 278.15 K | 283.15 K | 298.15 K | 308.15 K | 318.15 K | 343.15 K | 363.15 K
m1 = 0.000325 | 0.002576 | 0.002933 | 0.004125 | 0.005036 | 0.005965 | 0.008448 | 0.01046
m1 = 0.00109 | 0.008262 | 0.009509 | 0.01357 | 0.01642 | 0.01929 | 0.02734 | 0.03426
m1 = 0.035 | 0.2417 | 0.2829 | 0.3939 | 0.4778 | 0.5576 | 0.7954 | 0.9964
m1 = 0.11 | 0.7375 | 0.8455 | 1.195 | 1.445 | 1.692 | 2.409 | 3.004
m1 = 0.52 | 3.023 | 3.435 | 4.804 | 5.771 | 6.801 | 9.683 | 11.86
m1 = 0.99 | 5.272 | 6.034 | 8.275 | 9.907 | 11.75 | 16.85 | 20.13

[Cl-].[Na+] [sodium chloride] + O
electrical conductivity [S/m]
Conditions | 278.15 K | 283.15 K | 298.15 K | 308.15 K | 318.15 K | 343.15 K | 363.15 K
m1 = 0.000104 | 0.0008271 | 0.0009431 | 0.001295 | 0.00161 | 0.001893 | 0.002693 | 0.003358
m1 = 0.00099 | 0.007531 | 0.008619 | 0.01224 | 0.01478 | 0.01747 | 0.02497 | 0.03126
m1 = 0.01 | 0.07349 | 0.08395 | 0.1185 | 0.1425 | 0.1694 | 0.2418 | 0.3029
m1 = 0.1 | 0.6588 | 0.7505 | 1.06 | 1.277 | 1.505 | 2.148 | 2.691
m1 = 0.5 | 2.948 | 3.348 | 4.652 | 5.625 | 6.624 | 9.35 | 11.68
m1 = 1 | 5.444 | 6.123 | 8.43 | 10.19 | 11.94 | 16.8 | 20.94
